Measured values as given in US4855290A (priority 1985, dated 1989).
Values joined by “and” are separate entries in the source; they are usually repeats but may differ in a detail not shown here. Equal values may be shown once. “Also recorded” adds a separate entry of the source. Read-outs that look alike come from different tables or passages of the source.

Tests used:
[1] = Signs observed in rats after oral dose of 100 mg./kg.; format: in vivo; conditions: 100 mg./kg. oral
[2] = target: central muscarinic receptors (M1) (Rattus norvegicus, UniProt P08482); assay: biochemical; format: binding; set-up: IC50^1 :IC50^2: unit not given beside the values
[3] = target: central muscarinic receptors (M1 and M2); format: binding, rat
Guinea-pig ileum [4] = assay: Guinea-pig ileum induced contractions; conditions: for Type of activity: guinea-pig ileum; for IC50: inhibiting acetylcholine-induced contractions of the ileum
From the text: Guinea-pig ileum induced contractions
*This dose is the IC50 for inhibiting acetylcholineinduced
contractions of the ileum.

[5] = not given; remark: listed apart in the source
Guinea-pig ileum [6] = assay: Guinea-pig ileum induced contractions; conditions: ileum contraction
in vivo [7] = conditions: mouse, po
in vivo [8] = conditions: mouse, iv
[9] = Hypothermia-inducing activity in rats; conditions: AF102B at 80 mg./kg. p.o. and 60 mg./kg. i.p., oxotremorine 3.2 mg./kg. p.o. or 1.2 mg./kg. i.p.
[10] = set-up: species or system Male Sprague-Dawley rats; conditions: rat, in vivo
[11] = Morris Swimming Maze in AF64A- and CSF-injected rats; format: in vivo, male Sprague Dawley rats; conditions: AF102B 1 mg./kg., ip, physostigmine 0.1 mg./kg.
Protocol: 38 male Sprague Dawley rats (raised by Charles River) 5-6 months old with an average weight of 500 g. were used. The rats were housed in groups of 5 and were given free access to food and water. Testing was carried out in a round white metal tub 1.4 m. diameter and 0.4 m. deep. The tub was filled with water, made opaque by milk powder to the level of 18 cm. A platform of 12 cm. diameter and at a height of 16 cm. was placed in the tub 2 cm. below water level. The platform was covered with gauze to prevent the animal from slipping back into the water after reaching the platform.
Prior to testing, the rat was placed on the platform for 120 secs., placed gently into the water, facing the wall of the pool, at one of four starting locations (north, south, east or west) around the pool's perimeter. Within each block of four trials, each rat was started at each of the four starting locations, with the sequence of starting locations randomly selected. Testing was carried out on 2 consecutive days with each rat submitted daily to eight trials. During trials 1-12 the platform was located in the center of the south-east quadrant and during trials 13-16 the platform was transferred to the center of the north-west quadrant. If in a particular trial the rat found the platform, it was permitted to remain on it for 60 secs. before starting the next trial. […] The latency to find the platform was measured.
For drug testing, rats were injected with AF64A or CSF (3 nmole/2 ul/side) as described in Experiment 2, above. The rats were subjected first to a step-through learning procedure (see Experiment 1, above) and were 3-3.5 months after injection when tested in the water maze. The rats were divided into 4 groups; 18 CSF-injected rats were treated either with physostigmine (0.1 mg./kg. ip) (10 rats) or with saline (8 rats). 20 AF64A-injected rats were divided similarly. The rats were injected with physostigmine immediately before testing on each day.
Forty male Sprague-Dawley rats (obtained from Charles River Breeding Laboratories U.K.), 5-6 months old, weighing 450-580 g. during the experiment served as subjects. Rats were housed in groups of 5 and were given free access to food and water. 2.5-3.5 months before behavioral testing, rats were injected with AF64A (3 nmole/2 ul/side) (20 rats-group 1) or CSF (20 rats-group 2) as described in the surgery procedure.
Each of the injected groups was randomly subdivided into two equal size treatment groups.

[12] = LD50 of physostigmine (relative toxicity in rats); conditions: rat, in vivo, ip

Chain of central muscarinic receptors (M1) (P08482 whole entry): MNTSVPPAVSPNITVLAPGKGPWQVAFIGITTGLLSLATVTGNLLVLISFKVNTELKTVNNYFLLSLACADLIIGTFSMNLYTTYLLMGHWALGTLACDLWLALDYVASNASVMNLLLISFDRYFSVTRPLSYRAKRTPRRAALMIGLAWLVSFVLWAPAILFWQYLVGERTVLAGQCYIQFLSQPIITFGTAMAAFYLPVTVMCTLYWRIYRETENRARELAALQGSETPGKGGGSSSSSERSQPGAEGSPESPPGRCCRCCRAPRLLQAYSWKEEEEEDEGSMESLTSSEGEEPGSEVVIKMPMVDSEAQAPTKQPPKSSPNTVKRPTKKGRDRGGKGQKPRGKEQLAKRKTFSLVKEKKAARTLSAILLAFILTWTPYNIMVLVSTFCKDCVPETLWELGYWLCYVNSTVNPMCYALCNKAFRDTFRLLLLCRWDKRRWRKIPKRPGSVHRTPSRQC

C[C@@H]1O[C@]2(CS1)CN1CCC2CC1 (relative stereo) [AF102A]
Signs observed in rats [1]: spontaneous motor activity was slightly reduced; also recorded: mydriasis, with pupillary size being about three times that seen in controls; also recorded: sudden onset of a brief clonic convulsive seizure which 5 mins. later changed into periodic head twitching and tremors; also recorded: animals appeared somnolent, accompanied by partial loss of righting reflex, dyspnoeic and cyanotic, with very slight salivation and lachrymation; also recorded: full recovery occurred after several hours
mortality in rats [1]: one animal, out of the group of three, which was found dead
time found dead ([1]; post-administration): 40 min
IC50 [2]: 30000 nM
IC50^1 :IC50^2 ([2]; PNZ:QNB displacement ratio): 0.43
IC50 ([3]; read-out: IC50^2 for displacement of [^3 H]-QNB): 70000 nM
muscarinic agonist activity (TABLES 1 and 2) (Guinea-pig ileum [4]; binding and ileum): almost one order of magnitude less active
Type of activity (Guinea-pig ileum [4]): agonist
Mortality (mice, 78 mg./kg. per os): 0/5
Mortality (mice, 90 mg./kg. per os): 2/5
Mortality (mice, 104 mg./kg. per os): 2/5
Mortality (mice, 120 mg./kg. per os): 4/5
Mortality (mice, 139 mg./kg. per os): 5/5
Mortality (mice, 160 mg./kg. per os): 5/5
time of death after oral administration (mice, approximate LD50 doses, oral): 10 to 15 min
absorption by the enteric route (mice, inferred from i.v./oral LD50 ratio): efficient, rapid and apparently unaltered absorption
effects considered characteristic of parasympatho- or cholinomimetic activity (mouse, in vivo): none of the test animals exhibited effects considered characteristic of parasympatho- or cholinomimetic activity
onset of severe tremors after oral administration (mouse, in vivo, po): 2 to 3 min
Mortality ([5]; mice, 36.0 mg./kg. i.v.): 2/6
Mortality ([5]; mice, 37.9 mg./kg. i.v.): 3/6
Mortality ([5]; mice, 40.0 mg./kg. i.v.): 2/6
Mortality ([5]; mice, 42.5 mg./kg. i.v.): 4/6
Mortality ([5]; mice, 45.0 mg./kg. i.v.): 6/6
time of death after intravenous injection ([5]; mice, approximate LD50 doses, iv): about 30 secs.
onset of severe tremors after intravenous administration ([5]; mouse, in vivo, iv): 10 s
EC50 (Guinea-pig ileum [6]): > 10000 nM
LD50 (in vivo [7]): 102 mg/kg
LD50 (in vivo [8]): 40.4 mg/kg

C[C@@H]1OCC2(CN3CCC2CC3)O1 (stereo in doubt) [AF30, cis-2-methylspiro(1,3-dioxolane-4,3')quinuclidine, reference compound]
Type of activity (Guinea-pig ileum [4]): agonist
effects considered characteristic of parasympatho- or cholinomimetic activity (mice, oral or iv, tremors, salivation, lachrymation, diarrhoea, miosis): did exhibit such side effects
EC50 (Guinea-pig ileum [6]): 4000 nM

c1ccc(C(c2ccccc2)C2OC3(CS2)CN2CCC3CC2)cc1 (stereo not drawn) [(Ib), 2-diphenylmethylspiro(1,3-oxathiolane-5,3')quinuclidine]
Type of activity (Guinea-pig ileum [4]): antagonist
IC50 (Guinea-pig ileum [4]): 20 nM

CC1(c2ccccc2)OC2(CS1)CN1CCC2CC1 (stereo not drawn) [(Ic), 2-methyl-2-phenylspiro(1,3-oxathiolane-5,3')quinuclidine]
Type of activity (Guinea-pig ileum [4]): antagonist
IC50 (Guinea-pig ileum [4]): 2000 nM

O=C1CCCN1CC#CCN1CCCC1 [oxotremorine, reference compound]
EC50 [2]: 800 nM
IC50 [2]: 800 nM
IC50^1 :IC50^2 [2]: 0.27
EC50 ([3]; summary table, read-out: EC50, [^3 H]--QNB-binding): 3000 nM
cholinomimetic manifestation [9]: full cholinomimetic syndrome associated with tonic-clonic convulsions

CNC(=O)Oc1ccc2c(c1)[C@]1(C)CCN(C)[C@@H]1N2C [physostigmine, reference compound]
Initial-test latency [10]: 25.50 ± 5.68 s and 29.70 ± 7.93 s
reversal of AF64A-induced memory impairments in passive avoidance [10]: could be reversed
Retention-test latency ([10]; ip): 458.90 ± 63.33 s and 576.10 ± 22.69 s
Therapeutic index ([10]; ip): 5-17 and 10-17
retention of passive avoidance (statistics) ([10]; ip): significantly longer, F(1,36)=5.91, p=0.05; also recorded: significantly improved; also recorded: the retention of the CSF-injected group was not affected
effect in Morris Swimming Maze [11]: negative effect; also recorded: inhibited the decrease of the escape-latency curve
effect in Morris Swimming Maze ([11]; listed as Physostigmine): worsens; also recorded: apparently impaired the performance of both AF64A and CSF-injected groups
LD50 [12]: 1 to 2 mg/kg
